# Marks after values point to notes of the source that are not given here. Non-standard residues stand in square brackets, D forms with d. Residues, ends and D or L forms follow the SMILES beside them. ξ: configuration not given here. dThr(3ξ) = CC(O)[C@@H](N)C(=O)O
# Assays:
# [1] = test system: pregnant C57Bl/6 mice given LPS; test: Perinatal outcomes after maternal LPS (gestation length, perinatal survival, birth weight); format: in vivo
# Experimental: The timing of birth (FIG. 11A); the number of viable pups per litter at birth (FIG. 11B); the proportion of pups surviving to one week (FIG. 11C), and birth weight at 12-24 h (FIG. 11D) were recorded (all mean±SEM). The number of treated dams in each group is shown in parentheses (n=10 per group, with n=48-57 pups weighed per group at birth) and data were analysed by ANOVA and post-hoc Sidak t-test; *P<0.05.
# Animal and treatments. […] Mice were monitored via video recording until the time of parturition. Gestation length and perinatal survival (number of live pups at birth and % pups surviving to one week) were recorded. Pups were weighed at 12-24 h after birth.
# [2] = test system: progeny of C57Bl/6 dams given LPS and/or compound 2; test: Offspring growth trajectory and body morphometry at 20 weeks after exposure in utero; format: in vivo, C57Bl/6 mice; conditions: for Adrenals L / Adrenals R / Biceps / Brain / Combined Muscle / Gastrocnemius / Heart / Kidneys L / Kidneys R / Lean body weight / Liver / Lungs / Muscle:fat ratio / Ovary L / Ovary R / Parametrial Fat / Peri-renal Fat / Quadriceps / Retroperitoneal Fat / Spleen / Thymus / Total Central Fat / Triceps / Uterus / Epididymal Fat / Epididymis (L + R) / Seminal Vesicle / Testes L / Testes R: mean ± SEM
# Experimental: FIGS. 12A and 12B show the effect of exposure to compound 2 in utero on growth trajectory in offspring. Pregnant females were given either LPS or PBS control i.p. on gd 16.5, then compound 2 or PBS vehicle i.p. at 12 h intervals on gd 16.5, 17.0, 17.5 and 18.0. Growth trajectories of male (FIG. 12A) and female (FIG. 12B) progeny of mothers receiving LPS and/or compound 2 are shown as estimated marginal means±SEM, of n=20 male and n=20 female offspring in each group; *P<0.05). Data was analyzed by a Mixed Model Linear Repeated Measures ANOVA and post-hoc Sidak test.
# Animal and treatments. To analyze effects of compound 2 on offspring development into adulthood, pups delivered in the experiment described in Example 5 were weighed at 21 days, when pups were weaned and housed in groups of 1-4 siblings according to sex. All progeny were weighed again at 4 weeks and then every 2 weeks until 20 weeks of age. At 20 weeks, progeny were killed by cervical dislocation, weighed and autopsied for full body composition analysis. The following tissues were excised and weighed individually; brain, heart, lungs (left and right), kidneys (left and right), liver, adrenal glands (left and right), thymus, spleen, testes (males, left and right), seminal vesicle (males), epididymis (males), ovaries (females, left and right), uterus (females), quadriceps (left and right), triceps (left and right), biceps (left and right), gastrocnemius muscle (left and right), retroperitoneal fat, peri-renal fat, epididymal fat (males, left and right) and parametrial fat (females). Weights of bilateral tissues and organs were combined for each mouse. Total muscle weight was calculated by summing the weights of quadriceps, triceps, and biceps and gastrocnemius muscles. Total fat weight was calculated by summing the weights of retroperitoneal fat, peri-renal fat and epididymal fat (for males) or parametrial fat (for females), and the muscle/fat ratio was determined. Total fat weight was subtracted from total body weight to calculate total lean weight.
# [3] = LPS gd 16.5 + compound 2 1 mg/kg i.p. at 12 h intervals, 4 doses
# [4] = 20 week old adult female progeny, LPS + compound 2 in utero
# [5] = 20 week old adult female progeny, PBS + compound 2 in utero
# [6] = 20 week old adult male progeny, LPS + compound 2 in utero
# [7] = 20 week old adult male progeny, PBS + compound 2 in utero
structure (smiles),measurement,setting,value
CC(C)C[C@@H](NC(=O)[C@@H](CCC(=O)O)NC(=O)[C@H](NC(=O)[C@H](NC(=O)[C@@H](Cc1ccc(O)cc1)NC(=O)[C@H](N)CCCNC(=N)N)C(C)O)C(C)C)C(=O)N[C@H](C)C(=O)O (stereo partly drawn) [compound 2] (H-[dR][dY][dThr(3ξ)][dV][dE][dL][dA]-OH),LPS-induced death in the first week of life,[1]; [3],completely reversed
same,LPS-induced perinatal loss (number of viable pups at birth),[1]; [3],completely reversed
same,LPS-induced prematurity (gestation length),[1]; [3],completely reversed
same,perinatal outcomes,"[1]; compound 2 alone, in the absence of LPS",did not alter perinatal outcomes
same,pup weight at 12-24 h after birth,[1]; compound 2 with or without LPS treatment,no significant effect
same,Adrenals L,[2]; [4],4 ± 0 mg
same,Adrenals R,[2]; [4],4 ± 0 mg
same,Biceps,[2]; [4],48 ± 3 mg
same,Brain,[2]; [4],408 ± 9 mg
same,Combined Muscle,[2]; [4],673 ± 25 mg
same,Gastrocnemius,[2]; [4],207 ± 8 mg
same,Heart,[2]; [4],105 ± 4 mg
same,Kidneys L,[2]; [4],120 ± 5 mg
same,Kidneys R,[2]; [4],127 ± 6 mg
same,Lean body weight,[2]; [4],19.44 g
same,Liver,[2]; [4],955 ± 38 mg
same,Lungs,[2]; [4],165 ± 10 mg
same,Muscle:fat ratio,[2]; [4],1.23 ± 0.06
same,Ovary L,[2]; [4],13 ± 2 mg
same,Ovary R,[2]; [4],13 ± 1 mg
same,Parametrial Fat,[2]; [4],180 ± 20 mg
same,Peri-renal Fat,[2]; [4],66 ± 7 mg
same,Quadriceps,[2]; [4],254 ± 13 mg
same,Retroperitoneal Fat,[2]; [4],317 ± 18 mg
same,Spleen,[2]; [4],86 ± 7 mg
same,Thymus,[2]; [4],70 ± 5 mg
same,Total Central Fat,[2]; [4],562 ± 41 mg
same,Triceps,[2]; [4],165 ± 7 mg
same,Uterus,[2]; [4],66 ± 8 mg
same,Adrenals L,[2]; [5],4 ± 0 mg
same,Adrenals R,[2]; [5],4 ± 0 mg
same,Biceps,[2]; [5],51 ± 3 mg
same,Brain,[2]; [5],406 ± 9 mg
same,Combined Muscle,[2]; [5],690 ± 24 mg
same,Gastrocnemius,[2]; [5],215 ± 8 mg
same,Heart,[2]; [5],109 ± 3 mg
same,Kidneys L,[2]; [5],112 ± 5 mg
same,Kidneys R,[2]; [5],122 ± 6 mg
same,Lean body weight,[2]; [5],19.85 g
same,Liver,[2]; [5],945 ± 37 mg
same,Lungs,[2]; [5],174 ± 11 mg
same,Muscle:fat ratio,[2]; [5],1.18 ± 0.06
same,Ovary L,[2]; [5],16 ± 2 mg
same,Ovary R,[2]; [5],16 ± 1 mg
same,Parametrial Fat,[2]; [5],192 ± 20 mg
same,Peri-renal Fat,[2]; [5],71 ± 7 mg
same,Quadriceps,[2]; [5],254 ± 12 mg
same,Retroperitoneal Fat,[2]; [5],326 ± 18 mg
same,Spleen,[2]; [5],93 ± 7 mg
same,Thymus,[2]; [5],64 ± 5 mg
same,Total Central Fat,[2]; [5],589 ± 40 mg
same,Triceps,[2]; [5],170 ± 7 mg
same,Uterus,[2]; [5],63 ± 7 mg
same,Adrenals L,[2]; [6],4 ± 0 mg
same,Adrenals R,[2]; [6],3 ± 1 mg
same,Biceps,[2]; [6],58 ± 3 mg
same,Brain,[2]; [6],413 ± 5 mg
same,Combined Muscle,[2]; [6],848 ± 18 mg
same,Epididymal Fat,[2]; [6],224 ± 16 mg
same,Epididymis (L + R),[2]; [6],102 ± 3* mg
same,Gastrocnemius,[2]; [6],260 ± 7 mg
same,Heart,[2]; [6],128 ± 3 mg
same,Kidneys L,[2]; [6],149 ± 5 mg
same,Kidneys R,[2]; [6],159 ± 5 mg
same,Lean body weight,[2]; [6],23.04 g
same,Liver,[2]; [6],1097 ± 40 mg
same,Lungs,[2]; [6],173 ± 4 mg
same,Muscle:fat ratio,[2]; [6],1.39
same,Peri-renal Fat,[2]; [6],65 ± 6 mg
same,Quadriceps,[2]; [6],313 ± 8 mg
same,Retroperitoneal Fat,[2]; [6],334 ± 26 mg
same,Seminal Vesicle,[2]; [6],218 ± 9 mg
same,Testes L,[2]; [6],84 ± 3 mg
same,Testes R,[2]; [6],85 ± 3 mg
same,Total Central Fat,[2]; [6],625 ± 37 mg
same,Triceps,[2]; [6],217 ± 6 mg
same,Adrenals L,[2]; [7],5 ± 0 mg
same,Adrenals R,[2]; [7],6 ± 2 mg
same,Biceps,[2]; [7],67 ± 4 mg
same,Brain,[2]; [7],404 ± 7 mg
same,Combined Muscle,[2]; [7],840 ± 23 mg
same,Epididymal Fat,[2]; [7],244 ± 20 mg
same,Epididymis (L + R),[2]; [7],112 ± 4 mg
same,Gastrocnemius,[2]; [7],241 ± 9 mg
same,Heart,[2]; [7],131 ± 4 mg
same,Kidneys L,[2]; [7],156 ± 6 mg
same,Kidneys R,[2]; [7],162 ± 6 mg
same,Lean body weight,[2]; [7],23.59 g
same,Liver,[2]; [7],1141 ± 47 mg
same,Lungs,[2]; [7],181 ± 5 mg
same,Muscle:fat ratio,[2]; [7],1.28
same,Peri-renal Fat,[2]; [7],72 ± 7 mg
same,Quadriceps,[2]; [7],318 ± 10 mg
same,Retroperitoneal Fat,[2]; [7],353 ± 30 mg
same,Seminal Vesicle,[2]; [7],233 ± 12 mg
same,Testes L,[2]; [7],85 ± 3 mg
same,Testes R,[2]; [7],87 ± 3 mg
same,Thymus,[2]; [7],53 ± 4 mg
same,Total Central Fat,[2]; [7],669 ± 46 mg
same,Triceps,[2]; [7],215 ± 8 mg
same,body composition of adult offspring,"[2]; compound 2 exposure in utero, 20 weeks",no effect
same,growth trajectory of male and female offspring,"[2]; compound 2 to dams, with or without concurrent LPS exposure, up to 20 weeks",not affected
